Source: US6995143B2, “Macrolides with antibacterial activity” (Basilea Pharmaceutica AG, priority 2002, dated 2006)
Values after ≈ are worked out from the molar mass of the structure shown.

What was measured:
Format in all cases: cell-based
[1] = system: Haemophilus influenzae QK12/87; experiment: MIC, standard agar dilution method using HTM medium; conditions: for MIC: read-out: minimum inhibitory concentration (MIC), Strain I
Source text: (§1) The biological activities of compounds of the present invention against Haemophilus influenzae have been determined by standard agar dilution method using HTM medium (National Committee for Clinical Laboratory Standards. 2000. Methods for Dilution Antimicrobial Susceptibility Tests for Bacteria that Grow Aerobically, 5th edition. Approved standard M7-A5. National Committee for Clinical Laboratory Standards, Wayne, Pa.).

[2] = system: Haemophilus influenzae 12214; experiment: as above; conditions: for MIC: read-out: minimum inhibitory concentration (MIC), Strain K
Source text: as §1

[3] = system: Haemophilus influenzae QK50; experiment: as above; conditions: for MIC: read-out: minimum inhibitory concentration (MIC), Strain L
Source text: as §1

[4] = system: Haemophilus influenzae B1501; experiment: as above; conditions: for MIC: read-out: minimum inhibitory concentration (MIC), Strain M
Source text: as §1

[5] = system: Staphylococcus aureus 1086; experiment: MIC, standard microdilution technique; conditions: for MIC: read-out: minimum inhibitory concentration (MIC), Strain B
Source text: (§2) The antibacterial activities of the compounds have been determined by standard microdilution technique (National Committee for Clinical Laboratory Standards. 2000. Methods for Dilution Antimicrobial Susceptibility Tests for Bacteria that Grow Aerobically, 5th edition. Approved standard M7-A5. National Committee for Clinical Laboratory Standards, Wayne, Pa.).

[6] = system: Escherichia coli ATCC 25922; experiment: MIC, standard microdilution technique; conditions: for MIC: ATCC25922, read-out: minimum inhibitory concentration (MIC), Strain D
Source text: as §2

[7] = system: Streptococcus pneumoniae SL199T; experiment: MIC, standard microdilution technique; conditions: for MIC: read-out: minimum inhibitory concentration (MIC), Strain G
Source text: as §2

[8] = system: Streptococcus pneumoniae l/l; experiment: MIC, standard microdilution technique; conditions: for MIC: read-out: minimum inhibitory concentration (MIC), Strain E
Source text: as §2

[9] = system: Staphylococcus aureus ATCC 29213; experiment: MIC, standard microdilution technique; conditions: for MIC: ATCC29213, read-out: minimum inhibitory concentration (MIC), Strain A
Source text: as §2

[10] = system: Staphylococcus aureus 745; experiment: MIC, standard microdilution technique; conditions: for MIC: read-out: minimum inhibitory concentration (MIC), Strain C
Source text: as §2

[11] = system: Streptococcus pneumoniae 12288; experiment: MIC, standard microdilution technique; conditions: for MIC: read-out: minimum inhibitory concentration (MIC), Strain H
Source text: as §2

[12] = system: Streptococcus pneumoniae ¼; experiment: MIC, standard microdilution technique; conditions: for MIC: read-out: minimum inhibitory concentration (MIC), Strain F
Source text: as §2

| Structure (SMILES) | MIC [1] [µg/mL] | MIC [2] [µg/mL] | MIC [3] [µg/mL] | MIC [4] [µg/mL] | MIC [5] [µg/mL] | MIC [6] [µg/mL] | MIC [7] [µg/mL] | MIC [9] [µg/mL] | minimum inhibitory concentration (MIC), Strain I [1] [µg/mL] | minimum inhibitory concentration (MIC), Strain K [2] [µg/mL] | minimum inhibitory concentration (MIC), Strain L [3] [µg/mL] | minimum inhibitory concentration (MIC), Strain M [4] [µg/mL] | minimum inhibitory concentration (MIC), Strain B [5] | minimum inhibitory concentration (MIC), Strain D [6] [µg/mL] | minimum inhibitory concentration (MIC), Strain G [7] [µg/mL] | minimum inhibitory concentration (MIC), Strain E [8] | minimum inhibitory concentration (MIC), Strain A [9] | minimum inhibitory concentration (MIC), Strain C [10] [µg/mL] | minimum inhibitory concentration (MIC), Strain H [11] [µg/mL] | minimum inhibitory concentration (MIC), Strain F [12] [µg/mL] | other results |
| --- | --- | --- | --- | --- | --- | --- | --- | --- | --- | --- | --- | --- | --- | --- | --- | --- | --- | --- | --- | --- | --- |
| CC[C@H]1OC(=O)[C@@](C)(F)C(=O)[C@H](C)[C@@H](O[C@@H]2O[C@H](C)C[C@H](N(C)C)[C@H]2O)[C@](C)(OC)C[C@@H](C)C(=O)[C@H](C)[C@H]2[C@@H](SCc3ccc(OC)cc3)C(=O)O[C@@]21C (single isomer, unassigned) [Example 1, (3R or S, 3aR, 4R or S, 6R, 8R, 9R, 10R, 12S, 15R, 15aS)-15-Ethyl-12-fluorooctahydro-8-methoxy-3-[[(4-methoxyphenyl)methyl]thio]-4,6,8,10,12,15a-hexamethyl-9-[[3,4,6-trideoxy-3-(dimethylamino)-β-D-xylo-hexopyranosyl]oxy]-2H-furo [2,3-c] oxacyclotetradecin-2,5,11,13 (3H,6H,12H)-tetrone] | > 32 | > 32 | 32 (≈ 40.9 µM) | 32 (≈ 40.9 µM) | 2 (≈ 2.56 µM) | > 32 | 32 (≈ 40.9 µM) | 2 (≈ 2.56 µM) |  |  |  |  |  |  |  |  |  |  |  |  | MIC [8]: 0.5 µg/mL (≈ 0.639 µM); MIC [10]: > 32 µg/mL; MIC [11]: > 32 µg/mL; MIC [12]: 8 µg/mL (≈ 10.2 µM) |
| CC[C@H]1OC(=O)[C@@](C)(F)C(=O)[C@H](C)[C@@H](O[C@@H]2O[C@H](C)C[C@H](N(C)C)[C@H]2O)[C@](C)(OC)C[C@@H](C)C(=O)[C@H](C)[C@H]2[C@@H](S(=O)(=O)Cc3ccc(OC)cc3)C(=O)O[C@@]21C (single isomer, unassigned) [Example 2] |  |  |  |  |  |  |  |  | >32 | >32 | 32 (≈ 39.3 µM) | >32 | 2 µg/mL (≈ 2.46 µM) | >32 | >32 | <=0.06 μg/ml | 2 µg/mL (≈ 2.46 µM) | >32 | >32 | 4 (≈ 4.91 µM) |  |
| CC[C@H]1OC(=O)[C@H](C)C(=O)[C@H](C)[C@@H](O[C@@H]2O[C@H](C)C[C@H](N(C)C)[C@H]2O)[C@](C)(OC)C[C@@H](C)C(=O)[C@H](C)[C@H]2[C@@H](SSc3ncccc3[N+](=O)[O-])C(=O)O[C@@]21C (single isomer, unassigned) [Example 3] |  |  |  |  |  |  |  |  | >32 | >32 | >32 | >32 | 2 µg/mL (≈ 2.51 µM) | >32 | 32 (≈ 40.1 µM) | <=0.06 μg/ml | 2 µg/mL (≈ 2.51 µM) | >32 | >32 | 16 (≈ 20.1 µM) |  |
| CC[C@H]1OC(=O)[C@H](C)C(=O)[C@H](C)[C@@H](O[C@@H]2O[C@H](C)C[C@H](N(C)C)[C@H]2O)[C@](C)(OC)C[C@@H](C)C(=O)[C@H](C)[C@H]2[C@@H](SCC(=O)OC)C(=O)O[C@@]21C (single isomer, unassigned) [Example 5] |  |  |  |  |  |  |  |  | 32 (≈ 44.7 µM) | 32 (≈ 44.7 µM) | 32 (≈ 44.7 µM) | 16 (≈ 22.3 µM) | 1 µg/mL (≈ 1.4 µM) | >32 | >32 | 0.125 µg/mL (≈ 0.175 µM) | 1 µg/mL (≈ 1.4 µM) | >32 | >32 | >32 |  |
| CC[C@H]1OC(=O)[C@@](C)(F)C(=O)[C@H](C)[C@@H](O[C@@H]2O[C@H](C)C[C@H](N(C)C)[C@H]2O)[C@](C)(OC)C[C@@H](C)C(=O)[C@H](C)[C@H]2[C@@H](SCCCn3cc(-c4ccccc4)cn3)C(=O)O[C@@]21C (single isomer, unassigned) [Example 10] |  |  |  |  |  |  |  |  | 32 (≈ 37.8 µM) | >32 | 32 (≈ 37.8 µM) | >32 | 0.5 µg/mL (≈ 0.591 µM) | >32 | 8 (≈ 9.46 µM) | 0.5 µg/mL (≈ 0.591 µM) | 0.5 µg/mL (≈ 0.591 µM) | >32 | 16 (≈ 18.9 µM) | 2 (≈ 2.36 µM) |  |
| CC[C@H]1OC(=O)[C@@](C)(F)C(=O)[C@H](C)[C@@H](O[C@@H]2O[C@H](C)C[C@H](N(C)C)[C@H]2O)[C@](C)(OC)C[C@@H](C)C(=O)[C@H](C)[C@H]2[C@@H](SCCn3cnc(-c4cccnc4)n3)C(=O)O[C@@]21C (single isomer, unassigned) [Example 12, (3R or S, 3aR, 4R or S, 6R, 8R, 9R, 10R, 12S, 15R, 15aS)-15-Ethyl-12-fluorooctahydro-8-methoxy-4,6,8,10,12,15a-hexamethyl-3-[[2-[3-(3-pyridinyl)-1H-1,2,4-triazole-1-yl]ethyl]thio]-9-[[3,4,6-trideoxy-3-(dimethylamino)-β-D-xylo-hexopyranosyl]oxy]-2H-furo [2,3-c] oxacyclotetradecin-2,5,11,13 (3H,6H,12H)-tetrone] | 8 (≈ 9.59 µM) | 4 (≈ 4.8 µM) | 4 (≈ 4.8 µM) | 4 (≈ 4.8 µM) | ≤ 0.06 | > 32 | 0.25 (≈ 0.3 µM) | ≤ 0.06 |  |  |  |  |  |  |  |  |  |  |  |  | MIC [8]: ≤ 0.06 µg/mL; MIC [10]: > 32 µg/mL; MIC [11]: 4 µg/mL (≈ 4.8 µM); MIC [12]: ≤ 0.06 µg/mL |
| CC[C@H]1OC(=O)[C@@](C)(F)C(=O)[C@H](C)[C@@H](O[C@@H]2O[C@H](C)C[C@H](N(C)C)[C@H]2O)[C@](C)(OC)C[C@@H](C)C(=O)[C@H](C)[C@H]2[C@@H](SCCOCn3cc(C)c(=O)[nH]c3=O)C(=O)O[C@@]21C (single isomer, unassigned) [Example 14, (3R or S) 3aR, 4R or S, 6R, 8R, 9R, 10R, 12S, 15R, 15aS)-15-Ethyl-12-fluorooctahydro-8-methoxy-4,6,8,10,12,15a-hexamethyl-3-[[2-[[5-methyl-2,4-(1H,3H)-pyrimidinedione-1-yl]methoxy]ethyl]thio]-9-[[3,4,6-trideoxy-3-(dimethylamino)-β-D-xylo-hexopyranosyl]oxy]-2H-furo [2,3-c] oxacyclotetradecin-2,5,11,13 (3H,6H,12H)-tetrone] |  |  |  |  |  |  |  |  | 2 (≈ 2.37 µM) | 2 (≈ 2.37 µM) | 2 (≈ 2.37 µM) | 2 (≈ 2.37 µM) | <=0.06 μg/ml | >32 | 1 (≈ 1.18 µM) | <=0.06 μg/ml | <=0.06 μg/ml | >32 | 16 (≈ 19 µM) | 2 (≈ 2.37 µM) |  |
| CC[C@H]1OC(=O)[C@H](C)C(=O)[C@H](C)[C@@H](O[C@@H]2O[C@H](C)C[C@H](N(C)C)[C@H]2O)[C@](C)(OC)C[C@@H](C)C(=O)[C@H](C)[C@H]2[C@@H](S(=O)(=O)CCNC(=O)c3cccnc3)C(=O)O[C@@]21C (single isomer, unassigned) [Example 43, (3R or S, 3aR, 4R or S, 6R, 8R, 9R, 10R, 12R, 15R, 15aS) -15-Ethyloctahydro-8-methoxy-4,6,8,10,12,15a-hexamethyl-3-[[2-[(3-pyridinylcarbonyl)amino]ethyl]sulfonyl]-9-[[-3,4,6-trideoxy-3-(dimethylamino)-β-D-xylo-hexopyranosyl]oxy]-2H-furo [2,3-c] oxacyclotetradecin-2,5,11,13 (3H,6H,12H)-tetrone] | 16 (≈ 19.4 µM) | 16 (≈ 19.4 µM) | 16 (≈ 19.4 µM) | 8 (≈ 9.71 µM) | 1 (≈ 1.21 µM) | > 32 | 32 (≈ 38.8 µM) | 2 (≈ 2.43 µM) |  |  |  |  |  |  |  |  |  |  |  |  | MIC [10]: > 32 µg/mL; MIC [11]: > 32 µg/mL |
